Measurements: patent US6506772B1, “Substituted [1,2,4]triazolo[1,5a]pyridine derivatives with activity as adenosine receptor ligands” (Hoffmann-La Roche Inc., priority 2000, dated 2003)

Assays:
[1] = target: T1, human adenosine A2A receptor (Homo sapiens, UniProt P29274); test: Human adenosine A2A receptor [3H]-SCH-58261 binding assay; settings: for Ki: affinity to human adenosine A2A receptor, read-out: Ki HA2A; for selectivity (A1/A2a): calculated ratio of the affinity to the HA1 receptor to the HA2a receptor
T1 construct: expressed in transfected cells; host or cells: CHO cells, Semliki Forest virus expression system; membrane preparation

HA1 adenosine receptor = target: T2, HA1 adenosine receptor (Homo sapiens, UniProt P30542); test: Human adenosine A1 receptor affinity (Ki hA1); format: binding; settings: affinity to human adenosine A1 receptor
T2 sequence (P30542 1-326): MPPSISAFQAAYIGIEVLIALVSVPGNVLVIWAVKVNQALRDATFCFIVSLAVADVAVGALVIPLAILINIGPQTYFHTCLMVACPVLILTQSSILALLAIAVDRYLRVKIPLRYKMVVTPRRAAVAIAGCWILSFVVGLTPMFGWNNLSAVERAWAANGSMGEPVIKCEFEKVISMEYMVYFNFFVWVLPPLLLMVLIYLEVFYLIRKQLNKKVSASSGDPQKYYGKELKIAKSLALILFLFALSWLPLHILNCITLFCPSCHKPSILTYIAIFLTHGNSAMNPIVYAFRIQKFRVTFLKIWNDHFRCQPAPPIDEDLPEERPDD

T1 sequence (P29274 whole entry): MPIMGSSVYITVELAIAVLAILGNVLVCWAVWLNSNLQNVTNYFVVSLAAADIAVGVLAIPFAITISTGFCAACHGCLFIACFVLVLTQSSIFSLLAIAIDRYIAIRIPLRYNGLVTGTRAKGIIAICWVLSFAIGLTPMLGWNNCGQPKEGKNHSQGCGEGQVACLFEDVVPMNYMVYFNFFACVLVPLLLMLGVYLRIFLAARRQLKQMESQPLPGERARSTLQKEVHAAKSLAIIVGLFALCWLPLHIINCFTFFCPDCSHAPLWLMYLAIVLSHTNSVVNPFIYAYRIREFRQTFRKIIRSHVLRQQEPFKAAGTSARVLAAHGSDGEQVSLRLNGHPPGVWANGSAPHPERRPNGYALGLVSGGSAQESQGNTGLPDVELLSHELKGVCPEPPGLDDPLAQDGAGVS

Row | SMILES | Ki [1] | selectivity (A1/A2a) [1] | Ki (HA1 adenosine receptor)
1 | COc1ccc(CNC(=O)c2cc(N)n3nc(-c4ccc(C)o4)nc3c2)cc1OC [Example 142, 5-Amino-2-(5-methyl-furan-2-yl)-[1,2,4]triazolo[1,5-a]pyridine-7-carboxylic acid 3,4-dimethoxy-benzylamide] | 281 nM | 14.6 | 4120 nM
2 | CCN(C(=O)c1cc(N)n2nc(-c3sccc3C)nc2c1)C(C)C [Example 143, 5-Amino-2-(3-methyl-thiophen-2-yl)-[1,2,4]triazolo[1,5-a]pyridine-7-carboxylic acid ethyl-isopropyl-amide] | 121 nM | 9.0 | 1090 nM
3 | CCCCNC(=O)c1cc(N)n2nc(-c3ccccc3)nc2c1 [Example 145, 5-Amino-2-phenyl-[1,2,4]triazolo[1,5-a]pyridine-7-carboxylic acid butylamide] | 26 nM | 4.1 | 106 nM
4 | Nc1cc(C(=O)NC2CCCCC2)cc2nc(-c3ccccc3)nn12 [Example 147, 5-Amino-2-phenyl-[1,2,4]triazolo[1,5-a]pyridine-7-carboxylic acid cyclohexylamide] | 140 nM | 3.2 | 453 nM
5 | Nc1cc(C(=O)N2CCCC2)cc2nc(-c3ccccc3)nn12 [Example 150, (5-Amino-2-phenyl-[1,2,4]triazolo[1,5-a]pyridin-7-yl)-pyrrolidin-1-yl-methanone] | 82.3 nM | 8.6 | 711 nM
6 | Nc1cc(C(=O)N2CCCCC2)cc2nc(-c3ccccc3)nn12 [Example 151, (5-Amino-2-phenyl-[1,2,4]triazolo[1,5-a]pyridin-7-yl)-piperidin-1-yl-methanone] | 85.5 nM | 10.8 | 928 nM
7 | CN(Cc1ccccc1)C(=O)c1cc(N)n2nc(-c3ccccc3)nc2c1 [Example 152, 5-Amino-2-phenyl-[1,2,4]triazolo[1,5-a]pyridine-7-carboxylic acid benzyl-methyl-amide] | 32.8 nM | 11.2 | 367 nM
8 | CCN(CC)C(=O)c1cc(N)n2nc(-c3ccoc3)nc2c1 [Example 153, 5-Amino-2-furan-3-yl-[1,2,4]triazolo[1,5-a]pyridine-7-carboxylic acid diethylamide] | 301 nM | 16.0 | 4800 nM
9 | Nc1cc(C(=O)NCc2ccccc2Br)cc2nc(-c3ccoc3)nn12 [Example 157, 5-Amino-2-furan-3-yl-[1,2,4]triazolo[1,5-a]pyridine-7-carboxylic acid 2-bromo-benzylamide] | 18 nM | 12.8 | 231 nM
10 | Nc1cc(C(=O)NCc2ccccc2Cl)cc2nc(-c3ccccc3O)nn12 [Example 159, 5-Amino-2-(2-hydroxy-phenyl)-[1,2,4]triazolo[1,5-a]pyridine-7-carboxylic acid 2-chloro-benzylamide] | 105 nM | 2.7 | 279 nM
11 | Nc1cc(C(=O)NCc2ccccc2Br)cc2nc(-c3cccs3)nn12 [Example 164, 5-Amino-2-thiophen-2-yl-[1,2,4]triazolo[1,5-a]pyridine-7-carboxylic acid 2-bromo-benzylamide] | 25.5 nM | 4.4 | 111 nM
12 | Nc1cc(C(=O)NC2CCCCC2)cc2nc(-c3ccc(Br)o3)nn12 [Example 165, 5-Amino-2-(5-bromo-furan-2-yl)-[1,2,4]triazolo[1,5-a]pyridine-7-carboxylic acid cyclohexylamide] | 88.8 nM | 8.7 | 770 nM

The remaining molecules from weak to strong by Ki [1], led by results:

Row | Ki [1] | selectivity (A1/A2a) [1] | Ki (HA1 adenosine receptor) | SMILES
13 | 301 nM | 19.4 | 5850 nM | Nc1cc(C(=O)N2CCCCC2)cc2nc(-c3ccoc3)nn12 [Example 155, (5-Amino-2-furan-3-yl-[1,2,4]triazolo[1,5-a]pyridin-7-yl)-piperidin-1-yl-methanone]
14 | 148 nM | 8.1 | 1200 nM | CN(C(=O)c1cc(N)n2nc(-c3ccccc3)nc2c1)C1CCCCC1 [Example 148, 5-Amino-2-phenyl-[1,2,4]triazolo[1,5-a]pyridine-7-carboxylic acid cyclohexyl-methyl-amide]
15 | 130 nM | 15.0 | 1960 nM | CCN(CC)C(=O)c1cc(N)n2nc(-c3ccccc3)nc2c1 [Example 146, 5-Amino-2-phenyl-[1,2,4]triazolo[1,5-a]pyridine-7-carboxylic acid diethylamide]
16 | 126 nM | 1.1 | 139 nM | Nc1cc(C(=O)NCc2ccccc2Br)cc2nc(-c3ccccc3O)nn12 [Example 160, 5-Amino-2-(2-hydroxy-phenyl)-[1,2,4]triazolo[1,5-a]pyridine-7-carboxylic acid 2-bromo-benzylamide]
17 | 88.1 nM | 13.3 | 1180 nM | Nc1cc(C(=O)NC2CCCCC2)cc2nc(-c3ccoc3)nn12 [Example 154, 5-Amino-2-furan-3-yl-[1,2,4]triazolo[1,5-a]pyridine-7-carboxylic acid cyclohexylamide]
18 | 87.5 nM | 3.0 | 258 nM | CCCCNC(=O)c1cc(N)n2nc(-c3ccccc3O)nc2c1 [Example 158, 5-Amino-2-(2-hydroxy-phenyl)-[1,2,4]triazolo[1,5-a]pyridine-7-carboxylic acid butylamide]
19 | 63.4 nM | 12.9 | 819 nM | Cc1ccsc1-c1nc2cc(C(=O)N(Cc3ccccc3)C(C)C)cc(N)n2n1 [Example 144, 5-Amino-2-(3-methyl-thiophen-2-yl)-[1,2,4]triazolo[1,5-a]pyridine-7-carboxylic acid benzyl-isopropyl-amide]
20 | 61.4 nM | 4.9 | 301 nM | Nc1cc(C(=O)NC2CCCCC2)cc2nc(-c3cccs3)nn12 [Example 162, 5-Amino-2-thiophen-2-yl-[1,2,4]triazolo[1,5-a]pyridine-7-carboxylic acid cyclohexylamide]
21 | 57.4 nM | 1.7 | 98.1 nM | Nc1cc(C(=O)NC2CCc3ccccc32)cc2nc(-c3ccccc3)nn12 (stereo not drawn) [Example 149, 5-Amino-2-phenyl-[1,2,4]triazolo[1,5-a]pyridine-7-carboxylic acid indan-1-ylamide]
22 | 31.1 nM | 4.0 | 125 nM | Nc1cc(C(=O)NCc2ccccc2Cl)cc2nc(-c3cccs3)nn12 [Example 163, 5-Amino-2-thiophen-2-yl-[1,2,4]triazolo[1,5-a]pyridine-7-carboxylic acid 2-chloro-benzylamide]
23 | 28 nM | 5.7 | 161 nM | CCCCNC(=O)c1cc(N)n2nc(-c3cccs3)nc2c1 [Example 161, 5-Amino-2-thiophen-2-yl-[1,2,4]triazolo[1,5-a]pyridine-7-carboxylic acid butylamide]
24 | 17.1 nM | 13.3 | 228 nM | Nc1cc(C(=O)NCc2ccccc2Cl)cc2nc(-c3ccoc3)nn12 [Example 156, 5-Amino-2-furan-3-yl-[1,2,4]triazolo[1,5-a]pyridine-7-carboxylic acid 2-chloro-benzylamide]
